Square brackets hold non-standard residues; d marks the D form. Peptide text beside a SMILES is read from it. dPhe(F5) = N[C@H](Cc1c(F)c(F)c(F)c(F)c1F)C(=O)O; dBpa = N[C@H](Cc1ccc(C(=O)c2ccccc2)cc1)C(=O)O; dCha = N[C@H](CC1CCCCC1)C(=O)O
How the values were obtained:
[1] = Human serum treatment analysis (residual G2 checkpoint abrogating activity); type: in vitro ADME; conditions: 37 degrees
Method: Serum analysis was performed to determine the stability of peptides in mouse and human serum. Briefly, peptides (10 mM or 2.5 mM) were incubated with freshly prepared human serum at 37 degrees for 1 hr. […] Jurkat cells were treated with the serum with or without peptides and bleomycin (40 μg/ml) and incubated for 24 hr. The population of G2 phase cells was determined by flow cytometry as previously described. The residual G2 checkpoint abrogating activity of serum treated peptides were determined by comparing the % G2 cells of the treated serum and the standard curve produced with medium treated peptides, bleomycin and Jurkat cells (Table 5A).

SK-OV-3 = assay: G2 checkpoint abrogation by CBP501 combined with cis-platin, flow cytometry; type: cell-based; conditions: SK-OV-3, ovary, hMLH1; cis-platin 3 μg/ml 3 hr, then 45 hr
Method: (§1) The medium was aspirated, fresh medium without these compounds was added and the cells were incubated for an additional 45 hr. The cells including floating cells were harvested using trypsin-EDTA solution, incubated with Krishan's solution and analyzed for DNA content by flow cytometry as previously described.

MCF-7 = assay: as above; type: cell-based; conditions: MCF-7, mammary gland; cis-platin 3 μg/ml 3 hr, then 45 hr
Method: as §1

MK45 = assay: as above; type: cell-based; conditions: MK45, stomach; cis-platin 3 μg/ml 3 hr, then 45 hr
Method: as §1

SW620 = assay: as above; type: cell-based; conditions: SW620, colon; cis-platin 3 μg/ml 3 hr, then 45 hr
Method: as §1

HT-29 = assay: as above; type: cell-based; conditions: HT-29, colon; cis-platin 3 μg/ml 3 hr, then 45 hr
Method: as §1

DU-145 = assay: as above; type: cell-based; conditions: DU-145, prostate, MLH1; cis-platin 3 μg/ml 3 hr, then 45 hr
Method: as §1

NCI-H520 = assay: as above; type: cell-based; conditions: NCI-H520, lung, SCC; cis-platin 3 μg/ml 3 hr, then 45 hr
Method: as §1

NCI-H226 = assay: as above; type: cell-based; conditions: NCI-H226, lung, SCC; cis-platin 3 μg/ml 3 hr, then 45 hr
Method: as §1

SW900 = assay: as above; type: cell-based; conditions: SW900, lung, SCC; cis-platin 3 μg/ml 3 hr, then 45 hr
Method: as §1

Panc1 = assay: as above; type: cell-based; conditions: Panc1, pancreas; cis-platin 3 μg/ml 3 hr, then 45 hr
Method: as §1

## N=C(N)NCCC[C@@H](NC(=O)[C@@H](CCCNC(=N)N)NC(=O)[C@@H](CCC(N)=O)NC(=O)[C@@H](CCCNC(=N)N)NC(=O)[C@@H](CCCNC(=N)N)NC(=O)[C@@H](CCCNC(=N)N)NC(=O)[C@@H](CC1CCCCC1)NC(=O)[C@@H](Cc1c(F)c(F)c(F)c(F)c1F)NC(=O)[C@@H](CO)NC(=O)[C@@H](Cc1c[nH]c2ccccc12)NC(=O)[C@@H](CO)NC(=O)[C@H](N)Cc1ccc(C(=O)c2ccccc2)cc1)C(=O)O [CBP501, (d-Bpa)(d-Ser)(d-Trp)(d-Ser)(d-Phe-2,3,4,5,6-F)(d-Cha)(d-Arg)(d-Arg)(d-Arg)(d-Gln)(d-Arg)(d-Arg)] (H-[dBpa][dS][dW][dS][dPhe(F5)][dCha][dR][dR][dR][dQ][dR][dR]-OH; N-terminus and C-terminus assumed)
[1]
  Residual activity of peptide after 1 hr human serum treatment: >50% of original
SK-OV-3
  G2 checkpoint abrogating dose of CBP501, cis-platin: 50 µM
MCF-7
  G2 checkpoint abrogating dose of CBP501, cis-platin: >10 µM
MK45
  G2 checkpoint abrogating dose of CBP501, cis-platin: >10 µM
SW620
  G2 checkpoint abrogating dose of CBP501, cis-platin: >10 µM
HT-29
  G2 checkpoint abrogating dose of CBP501, cis-platin: <2 µM
DU-145
  G2 checkpoint abrogating dose of CBP501, cis-platin: 0.4 µM
NCI-H520
  G2 checkpoint abrogating dose of CBP501, cis-platin: >10 µM
NCI-H226
  G2 checkpoint abrogating dose of CBP501, cis-platin: 0.4 µM
SW900
  G2 checkpoint abrogating dose of CBP501, cis-platin: >10 µM
Panc1
  G2 checkpoint abrogating dose of CBP501, cis-platin: >10 µM

— patent publication US10149887B2, “Peptides and peptidomimetics in combination with t cell activating and/or checkpoint inhibiting agents for cancer treatment” (CanBas Co., Ltd., priority 2015, dated 2018)
